Read-outs that look alike come from different tables or passages of the source.
Experiments:
Leptosphaeria nodorum = test: Microtest: activity against wheat leaf spots caused by Leptosphaeria nodorum (Leptno); type: cell-based
Septoria tritici = test: Microtest: activity against leaf blotch on wheat caused by Septoria tritici (Septtr); type: cell-based; settings: solo product
Alternaria solani = test: Microtest: activity against early blight caused by Alternaria solani (Alteso); type: cell-based; settings: for inhibition of growth at 6.3e-05 ppm: solo 0.000063 ppm
Botrytis cinerea = test: Microtest: activity against the grey mold Botrytis cinerea (Botrci); type: cell-based; settings: for inhibition of growth at 6.3e-05 ppm: solo 0.000063 ppm
Phytophthora infestans = test: microbe, parasite or virus in culture; type: cell-based; settings: for Observed efficacy: solo product
Pyricularia oryzae = test: microbe, parasite or virus in culture; type: cell-based; settings: for Observed efficacy: solo product
[1] = second Septtr microtest, 63 ppm
[2] = second Septtr microtest, 0.016 ppm
[3] = Botrytis cinerea, 168 h, read-out: Observed efficacy
[4] = Botrytis cinerea, 168 h, solo 0.063 ppm, read-out: Observed efficacy
[5] = Phytophthora infestans, 168 h, read-out: Observed efficacy
[6] = Zymoseptoria tritici, 168 h, second Septtr microtest, 0.000016 ppm, read-out: Observed efficacy
[7] = Alternaria solani, 168 h, read-out: Observed efficacy
[8] = Pyricularia oryzae, 168 h, read-out: Observed efficacy
[9] = second Septtr microtest, 16 ppm

## CCN(Cc1ccc(Cl)nc1)/C(=C/[N+](=O)[O-])NC [Nitenpyram]
Leptosphaeria nodorum; solo 63 ppm
  Observed efficacy: 23
Septoria tritici; [1]
  Observed efficacy: 10%
Alternaria solani; solo 4 ppm
  Observed efficacy: 2
Alternaria solani; solo 16 ppm
  Observed efficacy: 2
Alternaria solani; solo 63 ppm
  Observed efficacy: 8

## CCOC(=O)C1CC(=O)C(=C(O)C2CC2)C(=O)C1 (stereo not shown) [II-3a, trinexapac-ethyl, reference compound]
Leptosphaeria nodorum; Parastagonospora nodorum, 168 h, solo 63 ppm, read-out: Observed efficacy
  inhibition of growth at 63 ppm: 17%
Septoria tritici; second Septtr microtest, 4 ppm
  Observed efficacy: 13%
Alternaria solani; solo 4 ppm
  Observed efficacy: 12
Alternaria solani; solo 16 ppm
  Observed efficacy: 27

## CC(C)C1C2CCC1c1c(NC(=O)c3cn(C)nc3C(F)F)cccc12 (stereo not shown) [II-50, isopyrazam, reference compound]
Botrytis cinerea; solo 0.016 ppm
  Observed efficacy: 6
Alternaria solani; solo 0.016 ppm
  Observed efficacy: 15

## N#Cc1c[nH]cc1-c1cccc2c1OC(F)(F)O2 [II-34, fludioxonil, reference compound]
Phytophthora infestans; 1 ppm
  Observed efficacy: 0%
Alternaria solani; solo product, 0.016 ppm
  Observed efficacy: 13%

## CCC(=O)C1=C([O-])CC(C(=O)[O-])CC1=O.[Ca+2] (stereo not shown) [Prohexadion-Ca]
Botrytis cinerea; solo 4 ppm
  Observed efficacy: 10
Botrytis cinerea; solo 16 ppm
  Observed efficacy: 5
Botrytis cinerea; solo 63 ppm
  Observed efficacy: 4
Leptosphaeria nodorum; solo 63 ppm
  Observed efficacy: 23
Septoria tritici; [1]
  Observed efficacy: 15%
Alternaria solani; solo 4 ppm
  Observed efficacy: 6
Alternaria solani; solo 16 ppm
  Observed efficacy: 2
Alternaria solani; solo 63 ppm
  Observed efficacy: 2

## Cn1cc(C(=O)Nc2ccccc2-c2cc(F)c(F)c(F)c2)c(C(F)F)n1 [II-42, fluxapyroxad, reference compound]
Alternaria solani; solo 0.001 ppm
  Observed efficacy: 4
Alternaria solani; solo product, 0.001 ppm
  Observed efficacy: 4%

## Cc1ccc(C(C)NC(=O)[C@@H](NC(=O)OC(C)C)C(C)C)cc1 (stereo partly shown) [II-51, iprovalicarb, reference compound]
Botrytis cinerea; solo 4 ppm
  Observed efficacy: 2
Botrytis cinerea; solo 16 ppm
  Observed efficacy: 3
Botrytis cinerea; solo 63 ppm
  Observed efficacy: 6
Leptosphaeria nodorum; solo 16 ppm
  Observed efficacy: 19
Alternaria solani; solo 4 ppm
  Observed efficacy: 1
Alternaria solani; solo 16 ppm
  Observed efficacy: 2
Alternaria solani; solo 63 ppm
  Observed efficacy: 1

## CO/C=C(/C(=O)OC)c1ccccc1Oc1cc(Oc2ccccc2C#N)ncn1 [II-3, azoxystrobin, reference compound]
Botrytis cinerea; solo 4 ppm
  Observed efficacy: 14
Botrytis cinerea; solo 16 ppm
  Observed efficacy: 23
Alternaria solani; solo 0.004 ppm
  Observed efficacy: 6
Alternaria solani; solo 0.016 ppm
  Observed efficacy: 14

## OC(Cc1ccccc1Cl)(Cn1nc[nH]c1=S)C1(Cl)CC1 (stereo not shown) [Prothioconazol]
Botrytis cinerea; solo 1 ppm
  Observed efficacy: 36
Botrytis cinerea; solo 4 ppm
  Observed efficacy: 72
Leptosphaeria nodorum; solo 1 ppm
  Observed efficacy: 43
Septoria tritici; [2]
  Observed efficacy: 17%
Alternaria solani; solo 1 ppm
  Observed efficacy: 66

## CN1COCN(Cc2cnc(Cl)s2)/C1=N\[N+](=O)[O-] [Thiamethoxam]
Leptosphaeria nodorum; solo 1 ppm
  Observed efficacy: 22
Leptosphaeria nodorum; solo 4 ppm
  Observed efficacy: 51
Septoria tritici; second Septtr microtest, 1 ppm
  Observed efficacy: 57%
Alternaria solani; solo 1 ppm
  Observed efficacy: 10
Alternaria solani; solo 4 ppm
  Observed efficacy: 51

## OC(Cn1cncn1)(c1ccc(Oc2ccc(Cl)cc2)cc1C(F)(F)F)C1CC1 (stereo not shown) [I-4, 1-[4-(4-chlorophenoxy)-2-(trifluoromethyl)phenyl]-1-cyclopropyl-2-(1,2,4-triazol-1-yl)ethanol]
Botrytis cinerea; [3]
  inhibition of growth at 6.3e-05 ppm: 4%
Botrytis cinerea; Botrytis cinerea, 168 h, solo 0.00025 ppm, read-out: Observed efficacy
  inhibition of growth at […]: 2%
Botrytis cinerea; Botrytis cinerea, 168 h, solo 0.001 ppm, read-out: Observed efficacy
  inhibition of growth at 0.001 ppm: 5%
Botrytis cinerea; [4]
  inhibition of growth at […]: 4%
Botrytis cinerea; Botrytis cinerea, 168 h, solo 0.25 ppm, read-out: Observed efficacy
  inhibition of growth at […]: 17%
Phytophthora infestans; [5]
  inhibition of growth at 4 ppm: 3%
  inhibition of growth at 16 ppm: 9%
Leptosphaeria nodorum; Parastagonospora nodorum, 168 h, solo 0.001 ppm, read-out: Observed efficacy
  inhibition of growth at 0.001 ppm: 15%
Septoria tritici; [6]
  inhibition of growth at 1.6e-05 ppm: 3%
Septoria tritici; Zymoseptoria tritici, 168 h, second Septtr microtest, 0.000063 ppm, read-out: Observed efficacy
  inhibition of growth at 6.3e-05 ppm: 8%
Septoria tritici; Zymoseptoria tritici, 168 h, 0.001 ppm, read-out: Observed efficacy
  inhibition of growth at 0.001 ppm: 0%
Septoria tritici; second Septtr microtest, 0.001 ppm
  Observed efficacy: 0%
Septoria tritici; 0.016 ppm
  Observed efficacy: 18
Alternaria solani; [7]
  inhibition of growth at 6.3e-05 ppm: 5%
Alternaria solani; Alternaria solani, 168 h, solo 0.00025 ppm, read-out: Observed efficacy
  inhibition of growth at […]: 7%
Alternaria solani; Alternaria solani, 168 h, solo 0.001 ppm, read-out: Observed efficacy
  inhibition of growth at 0.001 ppm: 10%
Alternaria solani; Alternaria solani, 168 h, solo 0.25 ppm, read-out: Observed efficacy
  inhibition of growth at […]: 33%
Pyricularia oryzae; [8]
  inhibition of growth at 1 ppm: 47%

## CC1(C)CCC(Cc2ccc(Cl)cc2)C1(O)Cn1cncn1 (stereo not shown) [Metconazol]
Septoria tritici; [2]
  Observed efficacy: 24%
Alternaria solani; solo 0.016 ppm
  Observed efficacy: 17

## COC(=O)N(OC)c1ccccc1COc1ccn(-c2ccc(Cl)cc2)n1 [II-66, pyraclostrobin, reference compound]
Leptosphaeria nodorum; Parastagonospora nodorum, 168 h, solo 0.016 ppm, read-out: Observed efficacy
  inhibition of growth at 0.016 ppm: 24%
Septoria tritici; second Septtr microtest, 0.004 ppm
  Observed efficacy: 37%
Septoria tritici; 0.001 ppm
  Observed efficacy: 12
Septoria tritici; 0.004 ppm
  Observed efficacy: 37
Alternaria solani; Alternaria solani, 168 h, solo 0.016 ppm, read-out: Observed efficacy
  inhibition of growth at 0.016 ppm: 18%
Alternaria solani; solo 0.004 ppm
  Observed efficacy: 8
Pyricularia oryzae; [8]
  inhibition of growth at 0.001 ppm: 5%

## OC(Cn1cncn1)(c1ccc(Oc2ccc(Cl)cc2)cc1Cl)C1CC1 (stereo not shown)
other
  melting point: 110 °C

## CCCCCCCCc1c(CC)nc2ncnn2c1N [II-1, ametoctradin, reference compound]
Botrytis cinerea; solo 16 ppm
  Observed efficacy: 3
Botrytis cinerea; solo 63 ppm
  Observed efficacy: 4
Alternaria solani; solo 4 ppm
  Observed efficacy: 5
Alternaria solani; solo 16 ppm
  Observed efficacy: 2
Alternaria solani; solo 63 ppm
  Observed efficacy: 6

## O=c1c2cc(F)ccc2nc(-n2cncn2)n1-c1ccc(Cl)cc1Cl [Fluquinconazol]
Phytophthora infestans; 4 ppm
  Observed efficacy: 0%
Septoria tritici; 0.004 ppm
  Observed efficacy: 0%
Pyricularia oryzae; 1 ppm
  Observed efficacy: 1%

## CC1(C)CC/C(=C\c2ccc(Cl)cc2)C1(O)Cn1cncn1 (stereo not shown) [Triticonazol]
Phytophthora infestans; 16 ppm
  Observed efficacy: 0%
Pyricularia oryzae; 1 ppm
  Observed efficacy: 1%
Pyricularia oryzae; 4 ppm
  Observed efficacy: 59%

## C[N+]1(C)CCCCC1.[Cl-] [Mepiquat-cl]
Botrytis cinerea; solo 16 ppm
  Observed efficacy: 11
Leptosphaeria nodorum; solo 63 ppm
  Observed efficacy: 28
Septoria tritici; [1]
  Observed efficacy: 16%
Alternaria solani; solo 16 ppm
  Observed efficacy: 10
Alternaria solani; solo 63 ppm
  Observed efficacy: 16

## Cc1ccc(-c2c(Cl)nc(C#N)n2S(=O)(=O)N(C)C)cc1 [II-12, cyazofamid, reference compound]
Septoria tritici; [9]
  Observed efficacy: 40%
Alternaria solani; solo 4 ppm
  Observed efficacy: 14
Alternaria solani; solo 16 ppm
  Observed efficacy: 35

## Fc1ccc([C@]2(Cn3cncn3)O[C@H]2c2ccccc2Cl)cc1 [Epoxiconazol]
Botrytis cinerea; solo 0.016 ppm
  Observed efficacy: 11
Phytophthora infestans; 4 ppm
  Observed efficacy: 27
Septoria tritici; [2]
  Observed efficacy: 16%
Alternaria solani; solo 0.004 ppm
  Observed efficacy: 5
Alternaria solani; solo 0.016 ppm
  Observed efficacy: 8

## CC#CC(O)(Cn1cncn1)c1ccc(Oc2ccc(Cl)cc2)cc1C(F)(F)F (stereo not shown)
other
  melting point: 137 °C

## CC1COC(Cn2cncn2)(c2ccc(Oc3ccc(Cl)cc3)cc2Cl)O1 (stereo not shown) [Difenoconazol]
Phytophthora infestans; 4 ppm
  Observed efficacy: 30
Leptosphaeria nodorum; solo 0.016 ppm
  Observed efficacy: 29
Septoria tritici; [2]
  Observed efficacy: 26%
Alternaria solani; solo 0.004 ppm
  Observed efficacy: 5
Alternaria solani; solo 0.016 ppm
  Observed efficacy: 5

## Cn1cc(C(=O)Nc2ccc(F)cc2-c2ccc(Cl)c(Cl)c2)c(C(F)F)n1 [II-6, bixafen, reference compound]
Botrytis cinerea; solo 0.016 ppm
  Observed efficacy: 8
Phytophthora infestans; 1 ppm
  Observed efficacy: 25
Alternaria solani; solo 0.001 ppm
  Observed efficacy: 5
Alternaria solani; solo 0.004 ppm
  Observed efficacy: 38

## O=C(Nc1ccccc1-c1ccc(Cl)cc1)c1cccnc1Cl [II-7, boscalid, reference compound]
Leptosphaeria nodorum; solo 4 ppm
  Observed efficacy: 23
Alternaria solani; solo 0.001 ppm
  Observed efficacy: 5
Alternaria solani; solo 0.004 ppm
  Observed efficacy: 6

## CO/N=C(/C1=NOCCO1)c1ccccc1Oc1ncnc(Oc2ccccc2Cl)c1F [II-37, fluoxastrobin, reference compound]
Alternaria solani; solo 0.016 ppm
  Observed efficacy: 11

## N#Cc1c(Cl)c(Cl)c(Cl)c(C#N)c1Cl [II-11, chlorothalonil, reference compound]
Leptosphaeria nodorum; solo 1 ppm
  Observed efficacy: 28

## COC(=O)Nc1nc2ccccc2[nH]1 [II-8, carbendazim, reference compound]
Phytophthora infestans; [5]
  inhibition of growth at 4 ppm: 24%
Septoria tritici; [9]
  Observed efficacy: 16%
Alternaria solani; solo 4 ppm
  Observed efficacy: 7
Alternaria solani; solo 16 ppm
  Observed efficacy: 10
Alternaria solani; solo 63 ppm
  Observed efficacy: 34

## CON=C(C(=O)OC)c1ccccc1CON=C(C)c1cccc(C(F)(F)F)c1 [II-92, trifloxystrobin, reference compound]
Phytophthora infestans; [5]
  inhibition of growth at 1 ppm: 37%
Alternaria solani; solo 0.004 ppm
  Observed efficacy: 7
Alternaria solani; solo 0.016 ppm
  Observed efficacy: 11

## CC(O)(Cn1cncn1)c1ccc(Oc2ccc(Cl)cc2)cc1C(F)(F)F (stereo not shown) [I-3, 2-[4-(4-chlorophenoxy)-2-(trifluoromethyl)phenyl]-1-(1,2,4-triazol-1-yl)propan-2-ol]
Botrytis cinerea; Botrytis cinerea, 168 h, solo 0.000004 ppm, read-out: Observed efficacy
  inhibition of growth at 4e-06 ppm: 0%
Botrytis cinerea; Botrytis cinerea, 168 h, solo 0.000016 ppm, read-out: Observed efficacy
  inhibition of growth at 1.6e-05 ppm: 5%
Botrytis cinerea; [3]
  inhibition of growth at 6.3e-05 ppm: 0%
Botrytis cinerea; [4]
  inhibition of growth at […]: 23%
Phytophthora infestans; [5]
  inhibition of growth at 4 ppm: 4%
  inhibition of growth at 16 ppm: 4%
Leptosphaeria nodorum; Parastagonospora nodorum, 168 h, solo product, 0.000063 ppm, read-out: Observed efficacy
  inhibition of growth at 6.3e-05 ppm: 26%
Septoria tritici; Zymoseptoria tritici, 168 h, second Septtr microtest, 0.00000025 ppm, read-out: Observed efficacy
  inhibition of growth at 2.5e-07 ppm: 8%
Septoria tritici; Zymoseptoria tritici, 168 h, second Septtr microtest, 0.000001 ppm, read-out: Observed efficacy
  inhibition of growth at 1e-06 ppm: 5%
Septoria tritici; Zymoseptoria tritici, 168 h, second Septtr microtest, 0.000004 ppm, read-out: Observed efficacy
  inhibition of growth at 4e-06 ppm: 14%
Septoria tritici; [6]
  inhibition of growth at 1.6e-05 ppm: 16%
Septoria tritici; 0.000016 ppm
  Observed efficacy: 16
Septoria tritici; 0.004 ppm
  Observed efficacy: 54
Alternaria solani; Alternaria solani, 168 h, solo 0.000004 ppm, read-out: Observed efficacy
  inhibition of growth at 4e-06 ppm: 5%
Alternaria solani; [7]
  inhibition of growth at 6.3e-05 ppm: 8%
Alternaria solani; solo product, 0.000016 ppm
  Observed efficacy: 0%
Pyricularia oryzae; [8]
  inhibition of growth at 0.004 ppm: 0%
  inhibition of growth at 1 ppm: 37%

## CC(C)(C)C(O)(CCc1ccc(Cl)cc1)Cn1cncn1 (stereo not shown) [Tebuconazol]
Botrytis cinerea; solo 0.016 ppm
  Observed efficacy: 9
Phytophthora infestans; 1 ppm
  Observed efficacy: 25
Alternaria solani; solo 0.016 ppm
  Observed efficacy: 8

## N#Cc1nn(-c2c(Cl)cc(C(F)(F)F)cc2Cl)c(N)c1[S+]([O-])C(F)(F)F (stereo not shown) [II-20c, fipronil, reference compound]
Alternaria solani; solo 1 ppm
  Observed efficacy: 6
Alternaria solani; solo 4 ppm
  Observed efficacy: 2

From patent US10759767B2 (priority 2012, dated 2020)
